Values of other authors in US20160038468A1 (priority 2013, published 2016).

Test system: B. fragilis, ATCC 25285
Conditions: agar dilution testing, from CLSI Table 5; cited from earlier work

Cc1ncc([N+](=O)[O-])n1CCO [Metronidazole]
Acceptable Range of MIC for control strain: 0.25 to 1 mg/L
